Measured values from patent publication US20130029928A1 (priority 2010, published 2013).
Several values for one entry are separate records, joined by “and”; a condition that tells them apart may be missing. Identical values can stand only once. Like-named read-outs stand apart in the source and are kept apart here.

Tests used:
[1] = test system: PANC-1 cells; experiment: Transcription profiling of CXR1002-treated PANC-1 cells (ER stress genes, Ingenuity); format: cell-based, human; conditions: PANC-1, 24 hrs at IC15
Description: Representation analysis of the in vitro 4996 signature list identified a number of pathways that were over-represented.

[2] = test system: HT-29; experiment: SRB cytotoxicity assay 48 hr; format: cell-based, human; conditions: read-out: IC50 Values After 48 Hrs Exposure
Protocol: (§4) The SRB assay was performed according to the method specified by the NIC/NIH. […] Assay replicates were independent in time and up to 4 replicates were performed per cell line.

[3] = test system: CaCo-2; experiment: SRB cytotoxicity assay 48 hr; format: cell-based, human; conditions: read-out: IC50 Values After 48 Hrs Exposure
Protocol: as §4

[4] = test system: MCF-7; experiment: SRB cytotoxicity assay 48 hr; format: cell-based, human; conditions: read-out: IC50 Values After 48 Hrs Exposure
Protocol: as §4

[5] = test system: MDA-MB-157; experiment: SRB cytotoxicity assay 48 hr; format: cell-based, human; conditions: read-out: IC50 Values After 48 Hrs Exposure
Protocol: as §4

[6] = test system: HepG2; experiment: SRB cytotoxicity assay 48 hr; format: cell-based, human; conditions: read-out: IC50 Values After 48 Hrs Exposure
Protocol: as §4

[7] = test system: A2780; experiment: SRB cytotoxicity assay 48 hr; format: cell-based, human; conditions: read-out: IC50 Values After 48 Hrs Exposure
Protocol: as §4

[8] = test system: OUMS-27; experiment: ATP depletion cytotoxicity assay 48 hr; format: cell-based, human
Protocol: (§5) Following exposure to Test Items, the CellTitre-Glo Luminescent Cell Viability Assay to measure ATP content was performed according to the manufacturer's detailed instructions (Promega Corporation, Technical Bulletin No. 288, and Cell notes, Issue 10, 2004).
(§6) Cells were plated at the optimal plating density for that cell line in 96-well plates and allowed to attach overnight. […] Cells were exposed to these compounds in Roswell Park Memorial Institute (RPMI) medium containing 10% Foetal Calf Serum (FCS) and 2 mM Glutamine at 37° C. and 5% CO2 for 48 hours. There were 3 replicates for each test item concentration.
(§7) Following exposure to Test Items, the CellTitre-Glo Luminescent Cell Viability Assay to measure ATP content will be performed according to the manufacturer's detailed instructions (Promega Corporation, Technical Bulletin No. 288, and Cell notes, Issue 10, 2004).

[9] = test system: PANC-1; experiment: ATP depletion cytotoxicity assay 48 hr; format: cell-based, human
Protocol: as §5, §6, §7

[10] = test system: SK-OV3; experiment: ATP depletion cytotoxicity assay 48 hr; format: cell-based, human
Protocol: (§8) Assay replicates were independent in time and up to 4 replicates were performed per cell line.
(§9) Cells were plated at the optimal plating density for that cell line in 96-well plates and allowed to attach overnight. The next day, the medium was removed and replaced with fresh medium containing the dose ranges of test items. […] There were 3 replicates for each test item concentration.
as §5
Cells were plated at the optimal plating density for that cell line in 96-well plates and allowed to attach overnight. The next day, cells were pre-treated with the inhibitors UO126 or LY294002 (see Tables 18 & 20) for 2 hrs, the medium was removed and replaced with fresh medium containing the appropriate dose of the test item. […] Cells were exposed to these compounds in Roswell Park Memorial Institute (RPMI) medium containing 10% Foetal Calf Serum (FCS) and 2 mM Glutamine at 37° C. and 5% CO2 for 48 hours. There were 3 replicates for each test item concentration.
as §7

[11] = test system: OVCAR-3; experiment: ATP depletion cytotoxicity assay 48 hr; format: cell-based; conditions: Homo sapiens
Protocol: as §8, §9, §5
Cells were plated at the optimal plating density for that cell line in 96-well plates and allowed to attach overnight. The next day, cells were pre-treated with the inhibitors UO126 or LY294002 (see Tables 18 & 20) for 2 hrs, the medium was removed and replaced with fresh medium containing the appropriate dose of the test item. […] Cells were exposed to these compounds in Roswell Park Memorial Institute (RPMI) medium containing 10% Foetal Calf Serum (FCS) and 2 mM Glutamine at 37° C. and 5% CO2 for 48 hours. There were 3 replicates for each test item concentration. […]

[12] = test system: MES-SA; experiment: ATP depletion cytotoxicity assay 48 hr; format: cell-based; conditions: Homo sapiens, Study CXR0798, read-out: IC50 1
Protocol: as §4

[13] = test system: HT1080; experiment: ATP depletion cytotoxicity assay 48 hr; format: cell-based; conditions: Homo sapiens, HT-1080, Study CXR0798, read-out: IC50 1
Protocol: as §4

[14] = test system: panel of human tumour-derived cell lines; experiment: BrdU incorporation (cell proliferation) in the SRB cell line panel; format: cell-based; conditions: 48 hrs
[15] = test system: panel of human tumour-derived cell lines; experiment: Hoechst 3342 staining (apoptotic cells) in the SRB cell line panel; format: cell-based
[16] = HT-29 xenograft in nude mice; format: in vivo, nude mouse; conditions: nude, mouse, plasma, intraperitoneal, 25 mg/kg; HT-29 model; 24 hrs post last dose; Day 29
Description: (§1) Animals were inoculated with a tumour cell suspension on each flank and the tumours were allowed to grow for 16 days.
(§2) These effects are consistent with a transient effect on the liver associated with mild toxicity and reversible liver enlargement. In rodents, this type of effect is usually due to hepatic PPARα activation associated with peroxisome proliferation.

[17] = test system: HT-29 (colon adenocarcinoma) tumours; experiment: HT-29 xenograft in nude mice; format: in vivo, nude mouse
Description: as §1, §2

[18] = PC3 xenograft in nude mice; format: in vivo, nude mouse; conditions: nude, mouse, plasma, intraperitoneal; PC3 model; 25 mg/kg three times weekly; 24 hrs post last dose; Day 29
Protocol: (§3) A parallel experiment was carried out using the prostate tumour cell line PC3.
as §2

[19] = test system: PC3 (prostate) xenograft tumours; experiment: PC3 xenograft in nude mice; format: in vivo, nude mouse
Protocol: as §3, §2

[20] = test system: HepG2 (liver) xenograft tumours; experiment: HepG2 xenograft model of liver carcinoma; format: in vivo, nude mouse
Description: There was no obvious difference between the two different dosing regimens.

[21] = target: CYP2C9 (Homo sapiens, UniProt P11712); experiment: Cytochrome P450 isozyme inhibition; format: in vitro ADME; conditions: under the conditions used (unpublished data); read-out: IC50 towards CYP2C9
Description: There is no evidence that APFO is metabolised in mammals once dissociated to form perfluorooctanoate.

[22] = test system: patients with advanced cancer; experiment: Phase I study CXR1002-001: safety and toxicity; format: in vivo, human; conditions: at the doses examined to date
Description: These patients then underwent repeat dosing schedule with the same dose of CXR1002. […] Dose limiting toxicity (DLT) will be based on the toxicity assessments over the first 3-week period of the repeat dosing schedule. PK samples (single blood sample) were taken on the following basis: • Every 6 weeks during the repeat dosing phase • If dosing is interrupted or stopped, samples will be taken at intervals according to patient convenience • PK sampling for safety evaluation may take place at any time, as clinically indicated
In all dose cohorts subsequent to the initial dose cohort, all patients will be treated with weekly administration of study drug from the start of dosing. Dose escalation was performed after all patients at the preceding dose level had completed a 3-week repeat dosing period.

[23] = test system: Panc-1 (pancreatic tumour) cells; experiment: Western blot of ER stress-regulated proteins in Panc-1 cells; format: cell-based, human; conditions: 500 μM, 4 h to 4 days
Protocol: Western blots were performed on the protein extracts (equivalent protein concentrations were loaded onto the gels). The antibodies used were for known ER stress regulated protein Bip/GRP78, CHOP/DDIT3, IRE1alpha, TRB3 (Tribbles3), cleaved PARP (marker of apoptosis), and tubulin (loading control) (see FIG. 71).

[24] = Plasma protein binding; format: in vitro ADME
[25] = test system: panel of tumour cell lines; experiment: ATP cytotoxicity assay on the panel of tumour cell lines (CXR1002 alone; test items alone vs combined with CXR1002); conditions: Homo sapiens, read-out: cytotoxicity IC50 to tumour cells (lowest of range)
Protocol: as §4
Cells were plated at the optimal plating density for that cell line in 96-well plates and allowed to attach overnight. The next day, the medium was removed and replaced with fresh medium containing the dose ranges of test items. The cells were exposed to 5-FU, cisplatin, docetaxel, doxorubicin, geldanamycin, gemcitabine, rapamycin or roscovitine in Roswell Park Memorial Institute (RPMI) medium containing 10% Foetal Calf Serum (FCS) and 2 mM Glutamine at 37° C. and 5% CO2 for 48 hours. […] There were 3 replicates for each test item concentration.
as §5

[26] = ATP depletion, 48 hrs, read-out: IC50 1-4 (independent replicates)
[27] = read-out: IC50 1-4 (independent replicates)

CYP2C9, sequence (P11712 whole entry): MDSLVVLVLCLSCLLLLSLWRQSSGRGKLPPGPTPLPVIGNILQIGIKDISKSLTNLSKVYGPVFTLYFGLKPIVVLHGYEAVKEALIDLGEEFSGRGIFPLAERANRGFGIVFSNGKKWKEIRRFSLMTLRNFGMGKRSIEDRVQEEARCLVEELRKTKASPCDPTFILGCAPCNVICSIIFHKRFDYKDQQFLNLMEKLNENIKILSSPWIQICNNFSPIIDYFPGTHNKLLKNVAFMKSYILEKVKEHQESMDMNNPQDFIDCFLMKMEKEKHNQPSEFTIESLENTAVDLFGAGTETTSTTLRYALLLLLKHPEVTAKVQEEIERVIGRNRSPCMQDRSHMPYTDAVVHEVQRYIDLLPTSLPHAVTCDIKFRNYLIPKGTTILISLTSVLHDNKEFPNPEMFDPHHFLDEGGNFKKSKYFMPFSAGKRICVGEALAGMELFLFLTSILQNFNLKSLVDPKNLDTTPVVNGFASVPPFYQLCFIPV

## O=C(O)C(F)(F)C(F)(F)C(F)(F)C(F)(F)C(F)(F)C(F)(F)C(F)(F)F [CXR1002]
[1]
  ATF3 induction: 3 fold
[2]
  IC50: 342 ± 10.6 µM
[3]
  IC50: 708 ± 159 µM
[4]
  IC50: 276 ± 33.2 µM
[5]
  IC50: 463 ± 168 µM
[6]
  IC50: 162 ± 31.8 µM
[7]
  IC50: 238 ± 7.5 µM
[8]; [26]
  IC50: 800 µM
[8]; Homo sapiens, 48 h, ATP depletion, 48 hrs, read-out: IC50 1-4 (independent replicates)
  IC50: 1000 µM
[8]; Homo sapiens, 48 h, ATP depletion, 48 hrs, read-out: IC50 Mean
  IC50: 900 µM
[8]; Homo sapiens, 48 h, Example 7, 48 hour, CXR1002 0-1 mM, U0126 fixed 10 μM where combined, read-out: IC50
  IC50: 821 µM
[9]; [26]
  IC50: > 1 mM (2×) and 880 µM
[9]; Homo sapiens, PANC-1, 48 h, ATP depletion, 48 hrs, read-out: IC50 1-4 (independent replicates)
  IC50: > 1000 µM
[9]; Homo sapiens, PANC-1, 48 h, ATP depletion, 48 hrs, read-out: IC50 Mean
  IC50: > 1000 µM
[9]; Homo sapiens, PANC-1, 48 h, Example 7, 48 hour, CXR1002 0-1 mM, U0126 fixed 10 μM where combined, read-out: IC50
  IC50: > 1000 µM
[10]; Homo sapiens, SK-OV-3, 48 h, read-out: IC50 1-4 (independent replicates)
  IC50: 550 µM
[10]; Homo sapiens, SK-OV-3, 48 h, read-out: IC50 Mean
  IC50: 535 µM
[10]; [27]
  IC50: 520 µM
[11]; [27]
  IC50: 650 µM
[11]; read-out: IC50 Mean
  IC50: 650 µM
[12]
  IC50: > 1000 µM
[13]
  IC50: > 1000 µM
[14]; 10 μM
  BrdU incorporation: No marked effects
[14]; 30 μM
  BrdU incorporation: variable
[14]; 300 μM, all but one of the cell lines
  BrdU incorporation: Significant suppression of BrdU incorporation
[15]; 10 μM
  induction of apoptosis: little effect
[15]; 30 μM
  induction of apoptosis: variable responses
[15]; 300 μM
  induction of apoptosis: marked induction of apoptosis
[16]
  concentration at 24 h: 277 µM
[17]; 25 mg/kg i.p. three times per week for 28 days
  effect on tumour volumes: anti-tumour effect
[17]; HT-29, 25 mg/kg i.p. three times per week, Day 29
  Absolute Tumour Volume as a Percentage of Saline Control: 49.22%
[17]; HT-29 model
  effect on body weight: No significant compound-dependent effects
  increase in liver weight: up to 2.5 fold
[17]; HT-29 model, 24 hrs post last dose, Day 29
  Terminal / maximum CXR1002 plasma level: 277 µM
[17]; mice bearing HT-29 xenografts
  increase in plasma AST: up to 3.5 fold
  plasma ALT levels: decreased
[17]; tumour-bearing nude mice, HT-29
  plasma glucose and triglyceride levels: slight reductions
[18]
  concentration at 24 h: 281 µM
[19]; 5, 15 and 25 mg/kg i.p.
  effect on tumours: marked anti-tumour effect
[19]; PC3-tumour bearing mice
  increase in plasma ALT: up to 1.8 fold
[19]; PC3, 25 mg/kg i.p., Day 25
  Absolute Tumour Volume as a Percentage of Saline Control: 19.14%
[19]; PC3 model
  effect on body weight: No marked effects on body weight
  liver weight: increase in liver weight
[19]; PC3 model, 25 mg/kg three times weekly, 24 hrs post last dose, Day 29
  Terminal / maximum CXR1002 plasma level: 281 µM
[19]; mice bearing PC3 xenografts
  increase in plasma AST: up to 3.5 fold
[19]; tumour-bearing nude mice, PC-3
  plasma glucose and triglyceride levels: slight reductions
[20]; 25 mg/kg 2× or 3× per week
  growth inhibition response: modest response
[20]; HepG2, 25 mg/kg, combined regimens, Day 53
  Absolute Tumour Volume as a Percentage of Saline Control: 77.05%
[20]; HepG2 model, ×3 weekly regimen, Days 60-64
  Terminal CXR1002 plasma levels: 520 µM and 520 ± 46 µM
[21]
  IC50: 0.76 µM
[22]
  clinical toxicity: relatively non-toxic
[23]
  expression of ER stress-regulated proteins: altered expression of ER stress-regulated proteins
[24]
  plasma protein binding: highly plasma protein bound
[25]
  IC50: ≥ 273 µM
